Test results reported in article PMC9456261 (International Journal of Molecular Sciences, 2022).
Where two headings read alike, the source gives them in different places.

Columns and labels:
Assay in all cases: microbe, parasite or virus in culture
Assay type in all cases: cell-based
[1] = test system: SARS-CoV-2 Delta (B.1.617.2)
[2] = test system: SARS-CoV-2 Beta (B.1.351)
[3] = test system: SARS-CoV-2 Omicron (B.1.1.529)
[4] = Severe acute respiratory syndrome coronavirus 2, Vero C1008, 72 h

Row | Compound | IC50 [1] [µM] | IC50 [2] [µM] | IC50 [3] [µM] | IC50 [1, 4] [µM] | IC50 [2, 4] [µM] | IC50 [3, 4] [µM]
1 | 4-[5-[3-[5-(2-Bromophenoxy)pentyl]-2,6-dioxo-5-methyl-3,6-dihydropyrimidin-1(^2H)-yl]pentyloxy]benzoic acid [Compound 872] | > 50 | > 50 | 7.92 | – | – | –
2 | O=C(O)c1ccc(OCCCCn2c(=O)ccn(Cc3cccc4ccccc34)c2=O)cc1 [Compound 601, 4-[4-[2,6-Dioxo-3-(naphthyl-1-methyl)-3,6-dihydropyrimidin-1(^2H)-yl]butoxy]benzoic acid] | – | – | – | 32.7 | 32.7 | 27.1
3 | O=c1ccn(Cc2c3ccccc3cc3ccccc23)c(=O)n1CCCCCCOc1ccc(Br)cc1 [Compound 611, 1-(Anthracen-9-ylmethyl)-3-[6-(4-bromophenoxy)hexyl]uracil] | – | – | – | 13.3 | > 50 | > 50
4 | O=C(O)c1ccc(OCCCCCn2c(=O)ccn(CCCCCOc3ccc(F)cc3)c2=O)cc1 [Compound 870, 4-[5-[3-[5-(4-Fluorophenoxy)pentyl]-2,6-dioxo-3,6-dihydropyrimidin-1(^2H)-yl]pentyloxy]benzoic acid] | – | – | – | 14.6 | 34.1 | 24.4
5 | O=C(O)c1ccc(OCCCCCn2c(=O)ccn(CCCCCOc3ccccc3Br)c2=O)cc1 [Compound 871, 4-[5-[3-[5-(2-Bromophenoxy)pentyl]-2,6-dioxo-3,6-dihydropyrimidin-1(^2H)-yl]pentyloxy]benzoic acid] | – | – | – | 26.6 | 27.3 | > 50
6 | O=C(O)c1ccc(OCCCCn2c(=O)ccn(CCCOc3ccc(Br)cc3)c2=O)cc1 [Compound 873, 4-[4-[3-[3-(4-Bromophenoxy)propyl]-2,6-dioxo-3,6-dihydropyrimidin-1(^2H)-yl]butoxy]benzoic acid] | – | – | – | > 50 | 50 | 28.2
7 | Cc1cc(C)cc(OCCCCCn2ccc(=O)n(CCCCCOc3ccc(C(=O)O)cc3)c2=O)c1 [Compound 874, 4-[5-[3-[5-(3,5-Dimethylphenoxy)pentyl]-2,6-dioxo-3,6-dihydropyrimidin-1(^2H)-yl]pentyloxy]benzoic acid] | – | – | – | 30.2 | 29.1 | > 50
8 | O=C(O)c1ccc(Cn2c(=O)ccn(CCCCCOc3ccc(Br)cc3)c2=O)cc1 [Compound 875] | – | – | – | 30.7 | 33.1 | 22.6
9 | O=C(O)c1ccc(OCCCCCn2c(=O)ccn(Cc3c4ccccc4cc4ccccc34)c2=O)cc1 [Compound 876] | – | – | – | 29.3 | 23.8 | 22.4
10 | O=C(O)c1ccc(OCCCCn2c(=O)ccn(Cc3ccc4ccccc4c3)c2=O)cc1 [Compound 1005, 4-[4-[2,6-Dioxo-3-(naphthyl-2-methyl)-3,6-dihydropyrimidin-1(^2H)-yl]butoxy]benzoic acid] | – | – | – | 27.8 | 15.5 | > 50
11 | O=C(O)c1ccc(OCCCCn2c(=O)ccn(Cc3ccc(Br)c4ccccc34)c2=O)cc1 [Compound 1006, 4-[4-[3-(4-Bromonaphthyl-1-methyl)-2,6-dioxo-3,6-dihydropyrimidin-1(2H)-yl]butoxy]benzoic acid] | – | – | – | 27.4 | > 50 | > 50
12 | O=C(O)c1ccc(OCCCn2c(=O)ccn(CCCCCCCCCCCCOc3ccc(Br)cc3)c2=O)cc1 [Compound 1007, 4-[3-[3-[12-(4-Bromophenoxy)dodecyl]-2,6-dioxo-3,6-dihydropyrimidin-1(^2H)-yl]propoxy]benzoic acid] | – | – | – | > 50 | > 50 | > 50
